In ChEMBL document CHEMBL1134477, “Combinatorial lead optimization of a neuropeptide FF antagonist” (J Med Chem, 2001):
Where a SMILES comes first, the peptide text is derived from it. The star is where a group is joined. Dansyl = CN(C)c1cccc2c(S(=O)(=O)*)cccc12; Desaminotyrosyl = O=C(CCc1ccc(O)cc1)*

Tests used:
[1] = K' value on the basis of IAM (immobilized artificial membrane) retention; format: functional
[2] = biological target: Neuropeptide FF receptor 2 (Rattus norvegicus, UniProt Q9EQD2); experiment: Binding affinity towards NPFF receptor was measured by the displacement of [125I]-YLFQPQRF-NH2
Neuropeptide FF receptor 2, sequence (Q9EQD2 whole entry): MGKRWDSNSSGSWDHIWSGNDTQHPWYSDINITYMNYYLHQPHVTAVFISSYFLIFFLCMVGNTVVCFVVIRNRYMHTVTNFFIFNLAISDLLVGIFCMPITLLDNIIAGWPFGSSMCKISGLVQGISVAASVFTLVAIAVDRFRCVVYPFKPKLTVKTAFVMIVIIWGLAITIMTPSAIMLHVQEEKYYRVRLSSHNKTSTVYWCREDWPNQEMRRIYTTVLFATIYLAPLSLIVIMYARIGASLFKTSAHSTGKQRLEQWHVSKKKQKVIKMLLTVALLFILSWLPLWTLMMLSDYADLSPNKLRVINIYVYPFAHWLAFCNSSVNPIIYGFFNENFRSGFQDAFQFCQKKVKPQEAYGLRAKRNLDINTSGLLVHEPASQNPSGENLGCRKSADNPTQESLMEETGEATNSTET

Ki [2] [nM]	Structure (SMILES)	kIAM' [1]
1400	CN(C)c1cccc2c(S(=O)(=O)NCC(=O)N[C@@H](CO)C(=O)N[C@@H](CCCN=C(N)N)C(N)=O)cccc12 (Dansyl-Gly-Ser-Arg-NH2)	8
840	CC(C)C[C@H](NC(=O)[C@H](Cc1ccccc1)NC(=O)CCc1ccc(O)cc1)C(=O)N[C@@H](Cc1ccccc1)C(=O)N[C@@H](CCC(N)=O)C(=O)N1CCC[C@H]1C(=O)N[C@@H](CCC(N)=O)C(=O)N[C@@H](CCCNC(=N)N)C(N)=O (Desaminotyrosyl-FLFQPQR-NH2)	

Structure (SMILES)	Ki [2] [nM]	kIAM' [1]
CN(C)c1cccc2c(S(=O)(=O)N3CCC[C@H]3C(=O)N[C@@H](CCC(N)=O)C(=O)N[C@@H](CCCNC(=N)N)C(N)=O)cccc12 [DANSYLPQRAMIDE]	13600	5.9
